# Molecular target: T1, HPK1 kinase (aa1-346, Life Technologies) (Homo sapiens, UniProt Q92918)
# T1 construct: HPK1 kinase (aa1-346, Life Technologies); purchased Life Technologies
# T1 sequence (Q92918 1-346): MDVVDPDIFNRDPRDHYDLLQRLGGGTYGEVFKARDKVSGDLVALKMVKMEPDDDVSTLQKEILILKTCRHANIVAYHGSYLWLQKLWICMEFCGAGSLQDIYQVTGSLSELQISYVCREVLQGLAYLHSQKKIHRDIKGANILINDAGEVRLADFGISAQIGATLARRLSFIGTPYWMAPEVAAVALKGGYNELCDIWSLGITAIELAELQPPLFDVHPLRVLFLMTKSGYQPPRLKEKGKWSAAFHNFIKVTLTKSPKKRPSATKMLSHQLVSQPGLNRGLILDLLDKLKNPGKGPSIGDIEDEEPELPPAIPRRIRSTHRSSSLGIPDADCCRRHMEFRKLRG
# Assay: HPK Kinase Activity Assay at 1 mM ATP (TR-FRET)
# Assay type: biochemical
# Details: HPK1 kinase 40 nM, 0.5 μM STK1 substrate, read-out: Enzymatic activity IC50
# Procedure: HPK Kinase Activity Assay at 1 mM ATP
# Compounds disclosed herein were tested for inhibition of HPK1 kinase (aa1-346, Life Technologies) activity in assays based on the time-resolved fluorescence-resonance energy transfer (TR-FRET) methodology. The assays were carried out in 384-well low volume black plates in a reaction mixture containing HPK1 kinase (40 nM), 1 mM ATP, 0.5 μM STK1 substrate and 0-10 μM compound in buffer containing 50 mM HEPES, 0.01% BSA, 0.1 mM Orthovanadate, 10 mM MgCl2, 1 mM DTT, pH=7.0, 0.005% Tween-20. The kinase was incubated with the compounds disclosed herein or DMSO for 60 minutes at room temperature and the reaction was initiated by the addition of ATP and STK1 substrate. After reaction at room temperature for 120 minutes, an equal volume of stop/detection solution was added according to the manufacture's instruction (CisBio). The stop/detection solution contained STK Antibody-Cryptate and XL665-conjugated streptavidin in Detection Buffer. The TR-FRET signals (ratio of fluorescence emission at 665 nm over emission at 620 nm with excitation at 337 nm wavelength) were recorded on a PHERAstar FS plate reader (BMG Labtech). Phosphorylation of STK1 substrate led to the binding of STK Antibody-Cryptate to the biotinylated STK1 substrate, which places fluorescent donor (Eu^3+ crypate) in close proximity to the accepter (Streptavidin-XL665), thus resulting in a high degree of fluorescence resonance energy transfer. The inhibition of HPK1 in presence of increasing concentrations of compounds was calculated based on the ratio of fluorescence at 665 nm to that at 620 nm. The IC50 for each compound was derived from fitting the data to the four-parameter logistic equation by Graphpad Prism software.
row,IC50 [nM],SMILES
1,16,"COc1c(COc2nc(-c3cc(C)c4c(c3)CN(C)CC4)cnc2N)ccnc1N [Example 35, 3-((2-amino-3-methoxypyridin-4-yl)methoxy)-5-(2,5-dimethyl-1,2,3,4-tetrahydroisoquinolin-7-yl)pyrazin-2-amine]"
2,57,"Cc1cc(-c2cnc(N)c(OCc3ccnc(NCC4CC4)c3)n2)cc2c1CCN(C)C2 [Example 38, 3-((2-((cyclopropylmethyl)amino)pyridin-4-yl)methoxy)-5-(2,5-dimethyl-1,2,3,4-tetrahydroisoquinolin-7-yl)pyrazin-2-amine]"
3,94,"Cc1cc(-c2cnc(N)c(OCc3ccncc3Oc3ccccc3)n2)cc2c1CCN(C)C2 [Example 42, 5-(2,5-dimethyl-1,2,3,4-tetrahydroisoquinolin-7-yl)-3-((3-phenoxypyridin-4-yl)methoxy)pyrazin-2-amine]"
4,19,"Cc1cc(-c2cnc(N)c(OCc3ccnc4[nH]cnc34)n2)cc2c1CCN(C)C2 [Example 44, 3-((3H-imidazo[4,5-b]pyridin-7-yl)methoxy)-5-(2,5-dimethyl-1,2,3,4-tetrahydroisoquinolin-7-yl)pyrazin-2-amine and 3-((1H-imidazo[4,5-b]pyridin-7-yl)methoxy)-5-(2,5-dimethyl-1,2,3,4-tetrahydroisoquinolin-7-yl)pyrazin-2-amine]"
5,16,"Cc1cc(-c2cnc(N)c(OCc3ccncc3OC3CC3)n2)cc2c1CCN(C)C2 [Example 149, 3-((3-cyclopropoxypyridin-4-yl)methoxy)-5-(2,5-dimethyl-1,2,3,4-tetrahydroisoquinolin-7-yl)pyrazin-2-amine]"
6,21,"Cc1cc(-c2cnc(N)c(OCc3ccnc(N)c3Cl)n2)cc2c1CCN(C)C2 [Example 152, 3-((2-amino-3-chloropyridin-4-yl)methoxy)-5-(2,5-dimethyl-1,2,3,4-tetrahydroisoquinolin-7-yl)pyrazin-2-amine]"
7,21,"COc1cnccc1COc1nc(-c2cc3c(c(OC)c2)CCN(C)C3)cnc1N [Example 180, 5-(5-methoxy-2-methyl-1,2,3,4-tetrahydroisoquinolin-7-yl)-3-((3-methoxypyridin-4-yl)methoxy)pyrazin-2-amine]"
8,12,"CNc1cc(-c2cnc(N)c(OCc3ccncc3OC)n2)cc2c1CCN(C)C2 [Example 205, 7-(5-amino-6-((3-methoxypyridin-4-yl)methoxy)pyrazin-2-yl)-N,2-dimethyl-1,2,3,4-tetrahydroisoquinolin-5-amine]"
9,8,"Cc1cc(-c2cnc(N)c(OCc3ccnc(N)c3OC3CCOCC3)n2)cc2c1CCN(C)C2 [Example 249, 3-((2-amino-3-((tetrahydro-2H-pyran-4-yl)oxy)pyridin-4-yl)methoxy)-5-(2,5-dimethyl-1,2,3,4-tetrahydroisoquinolin-7-yl)pyrazin-2-amine]"

# Further lines, the compound ahead of its results:
row,SMILES,IC50 [nM]
1,"Cc1cc(-c2cnc(N)c(-c3cn[nH]c3)n2)cc2c1CCN(C)C2 [Example 36, 5-(2,5-dimethyl-1,2,3,4-tetrahydroisoquinolin-7-yl)-3-(1H-pyrazol-4-yl)pyrazin-2-amine]",93
2,"CC(=O)Nc1cc(COc2nc(-c3cc(C)c4c(c3)CN(C)CC4)cnc2N)ccn1 [Example 39, N-(4-(((3-amino-6-(2,5-dimethyl-1,2,3,4-tetrahydroisoquinolin-7-yl)pyrazin-2-yl)oxy)methyl)pyridin-2-yl)acetamide]",85
3,"CCNc1cc(COc2nc(-c3cc(C)c4c(c3)CN(C)CC4)cnc2N)ccn1 [Example 40, 5-(2,5-dimethyl-1,2,3,4-tetrahydroisoquinolin-7-yl)-3-((2-(ethylamino)pyridin-4-yl)methoxy)pyrazin-2-amine]",29
4,"CCOc1c(COc2nc(-c3cc(C)c4c(c3)CN(C)CC4)cnc2N)ccnc1N [Example 41, 3-((2-amino-3-ethoxypyridin-4-yl)methoxy)-5-(2,5-dimethyl-1,2,3,4-tetrahydroisoquinolin-7-yl)pyrazin-2-amine]",8.9
5,"Cc1cc(-c2cnc(N)c(OCc3cc[nH]n3)n2)cc2c1CCN(C)C2 [Example 43, 3-((1H-pyrazol-3-yl)methoxy)-5-(2,5-dimethyl-1,2,3,4-tetrahydroisoquinolin-7-yl)pyrazin-2-amine]",56
6,"CCn1cc(Oc2nc(-c3cc(C)c4c(c3)CN(C)CC4)cnc2N)cn1 [Example 45, 5-(2,5-dimethyl-1,2,3,4-tetrahydroisoquinolin-7-yl)-3-(1-ethyl-1H-pyrazol-4-yloxy)pyrazin-2-amine]",15
7,"Cc1cc(-c2cnc(N)c(-n3cc(C(=O)N(C)C)cn3)n2)cc2c1CCN(C)C2 [Example 46, 1-(3-amino-6-(2,5-dimethyl-1,2,3,4-tetrahydroisoquinolin-7-yl)pyrazin-2-yl)-N,N-dimethyl-1H-pyrazole-4-carboxamide]",21
8,"Cc1cc(-c2cnc(N)c(O[C@H](C)c3c(Cl)ccc(C(=O)NC4CC4)c3Cl)n2)cc2c1CCN(C)C2 [Example 47A, (R)-3-(1-(3-amino-6-(2,5-dimethyl-1,2,3,4-tetrahydroisoquinolin-7-yl)pyrazin-2-yloxy)ethyl)-2,4-dichloro-N-cyclopropylbenzamide]",47
9,"Cc1cc(-c2cnc(N)c(O[C@@H](C)c3c(Cl)ccc(C(=O)NC4CC4)c3Cl)n2)cc2c1CCN(C)C2 [Example 47B, (S)-3-(1-(3-amino-6-(2,5-dimethyl-1,2,3,4-tetrahydroisoquinolin-7-yl)pyrazin-2-yloxy)ethyl)-2,4-dichloro-N-cyclopropylbenzamide]",2680
10,"COc1cc(-c2cnc(N)c(OCc3ccnc(N)c3)n2)cc2c1CCN(C)C2 [Example 179, 3-((2-aminopyridin-4-yl)methoxy)-5-(5-methoxy-2-methyl-1,2,3,4-tetrahydroisoquinolin-7-yl)pyrazin-2-amine]",7.2
11,"COc1cnc2[nH]ccc2c1COc1nc(-c2cc(C)c3c(c2)CN(C)CC3)cnc1N [Example 188, 5-(2,5-dimethyl-1,2,3,4-tetrahydroisoquinolin-7-yl)-3-((5-methoxy-1H-pyrrolo[2,3-b]pyridin-4-yl)methoxy)pyrazin-2-amine]",8.1
12,"Cc1cc(-c2cnc(N)c(OCc3cc(N)nc(N)c3)n2)cc2c1CCN(C)C2 [Example 222, 4-((3-amino-6-(2,5-dimethyl-1,2,3,4-tetrahydroisoquinolin-7-yl)pyrazin-2-yloxy)methyl)pyridine-2,6-diamine]",4
13,"Cc1cc(-c2cnc(N)c(Oc3cnn(C(C)C)c3)n2)cc2c1CN(C)CC2 [Example 242, 5-(2,8-dimethyl-1,2,3,4-tetrahydroisoquinolin-6-yl)-3-(1-isopropyl-1H-pyrazol-4-yloxy)pyrazin-2-amine]",54
14,"[2H]C([2H])(Oc1nc(-c2cc(C)c3c(c2)CN(C)CC3)cnc1N)c1ccnc(N)c1 [Example 266, 3-((2-aminopyridin-4-yl)methoxy-d2)-5-(2,5-dimethyl-1,2,3,4-tetrahydroisoquinolin-7-yl)pyrazin-2-amine]",5.1
15,"CN1CCc2c(cc(-c3cnc(N)c(OCc4ccnc(N)c4)n3)cc2C(F)(F)F)C1 [Example 271, 3-((2-aminopyridin-4-yl)methoxy)-5-(2-methyl-5-(trifluoromethyl)-1,2,3,4-tetrahydroisoquinolin-7-yl)pyrazin-2-amine]",11
16,"Cc1cc(-c2cnc(N)c(Oc3cnn(C(C)C)c3)n2)cc2c1CCN(C)C2 [Example 272, 5-(2,5-dimethyl-1,2,3,4-tetrahydroisoquinolin-7-yl)-3-(1-isopropyl-1H-pyrazol-4-yloxy)pyrazin-2-amine]",8.4
17,"CCn1cc(Oc2nc(-c3cc4c(c(OC)c3)CCN(C)C4)cnc2N)cn1 [Example 274, 3-(1-ethyl-1H-pyrazol-4-yloxy)-5-(5-methoxy-2-methyl-1,2,3,4-tetrahydroisoquinolin-7-yl)pyrazin-2-amine]",24
18,"CCn1cc(Oc2nc(-c3cc4c(c(NC)c3)CCN(C)C4)cnc2N)cn1 [Example 275, 7-(5-amino-6-(1-ethyl-1H-pyrazol-4-yloxy)pyrazin-2-yl)-N,2-dimethyl-1,2,3,4-tetrahydroisoquinolin-5-amine]",14
19,"COCCn1cc(Oc2nc(-c3cc(C)c4c(c3)CN(C)CC4)cnc2N)cn1 [Example 276, 5-(2,5-dimethyl-1,2,3,4-tetrahydroisoquinolin-7-yl)-3-((1-(2-methoxyethyl)-1H-pyrazol-4-yl)oxy)pyrazin-2-amine]",24

# From patent US12673933B2, “Aminopyrazine compounds as HPK1 inhibitor and the use thereof” (BEIGENE, LTD., priority 2019, dated 2026)
